According to EPA's ToxRefDB 2:

Legend:
rat [1] = conditions: Sub-acute repeat dose toxicity; Oral; Gavage/Intubation; dose end: 7 day; group: systemic; systemic / pathology microscopic / kidney / hyaline droplet + systemic / pathology microscopic / kidney / regeneration + systemic / …
dog [2] = conditions: Sub-acute repeat dose toxicity, beagle, Oral, Gavage/Intubation, dose end: 29 day, group: systemic
rat [3] = conditions: Sub-acute repeat dose toxicity; Oral; Gavage/Intubation; dose end: 7 day; group: systemic; systemic / organ weight / adrenal gland / absolute + systemic / organ weight / liver / absolute + systemic / pathology microscopic / kidney…
rat [4] = conditions: Sub-acute repeat dose toxicity, Oral, Gavage/Intubation, dose end: 7 day, group: systemic
mouse [5] = conditions: Sub-acute repeat dose toxicity, Oral, Gavage/Intubation, dose end: 7 day, group: systemic
dog [6] = conditions: Sub-acute repeat dose toxicity; beagle; Oral; Gavage/Intubation; dose end: 14 day; group: systemic; systemic / in life observation / clinical signs / emesis + systemic / in life observation / clinical signs / salivation + systemic / in life…
rat [7] = conditions: Sub-acute repeat dose toxicity; Injection; Intravenous; dose end: 7 day; group: systemic; systemic / hematology / platelet / platelet + systemic / organ weight / liver / absolute + systemic / pathology microscopic / liver / …
rat [8] = conditions: Sub-acute repeat dose toxicity, Oral, Gavage/Intubation, dose end: 7 day, group: systemic; remark: listed apart in the source
mouse [9] = conditions: Fertility (Segment I), Oral, Gavage/Intubation, dose end: 1 generation
dog [10] = conditions: Sub-acute repeat dose toxicity, beagle, Oral, Gavage/Intubation, dose end: 7 day, group: systemic
rabbit = conditions: Prenatal developmental toxicity study; new zealand white; Oral; Gavage/Intubation; dose end: 19 GD; group: maternal; systemic / in life observation / body weight / body weight gain + systemic / in life observation / clinical signs / anogenital staining + …
rat [11] = conditions: Sub-acute repeat dose toxicity, sprague dawley, Oral, Gavage/Intubation, dose end: 28 day, group: systemic
rat [12] = conditions: Chronic toxicity, sprague dawley, Oral, Gavage/Intubation, dose end: 6 month, group: systemic
rat [13] = conditions: Chronic toxicity; sprague dawley; Oral; Gavage/Intubation; dose end: 6 month; group: systemic; systemic / clinical chemistry / alanine aminotransferase (alt/sgpt) / alanine aminotransferase (alt/sgpt) + systemic / clinical chemistry / …
dog [14] = conditions: Chronic toxicity; beagle; Oral; Capsule; dose end: 6 month; group: systemic; systemic / clinical chemistry / potassium / potassium + systemic / in life observation / body weight / body weight + systemic / in life …
dog [15] = conditions: Chronic toxicity; beagle; Oral; Capsule; dose end: 1 year; group: systemic; systemic / in life observation / body weight / body weight + systemic / in life observation / clinical signs / vomitting + systemic / in …
mouse [16] = conditions: Sub-acute repeat dose toxicity, cd1, Oral, Gavage/Intubation, dose end: 4 week, group: systemic
dog [17] = conditions: Sub-acute repeat dose toxicity; beagle; Oral; Capsule; dose end: 1 month; group: systemic; systemic / clinical chemistry / glucose / glucose + systemic / in life observation / body weight / body weight + systemic / in life …
[18] = systemic / in life observation / clinical signs / arrhythmia + systemic / organ weight / testes / absolute + systemic / organ weight / …
[19] = systemic / in life observation / food consumption / food consumption + systemic / pathology microscopic / liver / depletion glycogen + …
[20] = systemic / pathology microscopic / adrenal gland / hypertrophy + systemic / pathology microscopic / kidney / regeneration + systemic / …
[21] = systemic / clinical chemistry / cholesterol / cholesterol + systemic / pathology microscopic / liver / vacuolization + systemic / clinical …
[22] = systemic / clinical chemistry / cholesterol / cholesterol + systemic / clinical chemistry / protein / protein + systemic / hematology / …
[23] = systemic / clinical chemistry / cholesterol / cholesterol + systemic / hematology / eosinophils / eosinophils + systemic / clinical …
[24] = group: maternal, reproductive / reproductive performance / mating / mating + reproductive / reproductive performance / precoital interval / precoital …
[25] = group: parental, systemic / in life observation / body weight / body weight gain + systemic / in life observation / food consumption / food consumption + …
[26] = systemic / clinical chemistry / alanine aminotransferase (alt/sgpt) / alanine aminotransferase (alt/sgpt) + systemic / pathology microscopic…
[27] = systemic / clinical chemistry / alkaline phosphatase (alp/alk) / alkaline phosphatase (alp/alk) + systemic / clinical chemistry / …
[28] = systemic / clinical chemistry / alanine aminotransferase (alt/sgpt) / alanine aminotransferase (alt/sgpt) + systemic / clinical chemistry / …
[29] = systemic / clinical chemistry / alanine aminotransferase (alt/sgpt) / alanine aminotransferase (alt/sgpt) + systemic / in life observation…
[30] = systemic / clinical chemistry / albumin / albumin + systemic / clinical chemistry / alkaline phosphatase (alp/alk) / alkaline phosphatase (…
[31] = systemic / clinical chemistry / albumin / albumin + systemic / clinical chemistry / aspartate aminotransferase (ast/sgot) / aspartate …
[32] = systemic / in life observation / clinical signs / alopecia + systemic / in life observation / clinical signs / external lesion(s) + systemic…
[33] = systemic / in life observation / clinical signs / scabbing + systemic / in life observation / body weight / body weight + systemic / in life…

CCc1nn(CCO)c(CC)c1Oc1cc(C#N)cc(C#N)c1 [Lersivirine]
LEL (rat [1]): 23 mg/kg/day | LOAEL (rat [1]): > 100 mg/kg/day | NEL (rat [1]): < 23 mg/kg/day | NOAEL (rat [1]): ≥ 100 mg/kg/day | LEL (dog [2]; [18]): 10 mg/kg/day | NEL (dog [2]; [18]): < 10 mg/kg/day | LOAEL (dog [2]; [19]): > 50 mg/kg/day | NOAEL (dog [2]; [19]): ≥ 50 mg/kg/day | LOAEL (rat [3]): > 35 mg/kg/day | NEL (rat [3]): < 35 mg/kg/day | NOAEL (rat [3]): ≥ 35 mg/kg/day | LOAEL (rat [4]; [20]): > 150 mg/kg/day | NOAEL (rat [4]; [20]): ≥ 150 mg/kg/day | NEL (rat [4]; systemic / pathology microscopic / kidney / regeneration + systemic / pathology microscopic / adrenal gland / vacuolization + systemic / …): < 35 mg/kg/day | LOAEL (mouse [5]; [21]): > 250 mg/kg/day | NOAEL (mouse [5]; [21]): ≥ 250 mg/kg/day | NEL (mouse [5]; systemic / organ weight / liver / absolute + systemic / pathology microscopic / liver / hypertrophy): < 35 mg/kg/day | LEL (dog [6]): 5 mg/kg/day | LOAEL (dog [6]): > 150 mg/kg/day | NEL (dog [6]): < 5 mg/kg/day | NOAEL (dog [6]): ≥ 150 mg/kg/day | LOAEL (rat [7]): > 35 mg/kg/day | NEL (rat [7]): < 35 mg/kg/day | NOAEL (rat [7]): ≥ 35 mg/kg/day | LEL (rat [8]; [22]): 70 mg/kg/day | NEL (rat [8]; [22]): < 70 mg/kg/day | LOAEL (rat [8]; [23]): > 1000 mg/kg/day | NOAEL (rat [8]; [23]): ≥ 1000 mg/kg/day | LEL (mouse [9]; [24]): 700 mg/kg/day | LOAEL (mouse [9]; [24]): > 700 mg/kg/day | NEL (mouse [9]; [24]): 200 mg/kg/day | NOAEL (mouse [9]; [24]): ≥ 700 mg/kg/day | LEL (mouse [9]; [25]): 700 mg/kg/day | LOAEL (mouse [9]; [25]): > 700 mg/kg/day | NEL (mouse [9]; [25]): 200 mg/kg/day | NOAEL (mouse [9]; [25]): ≥ 700 mg/kg/day | LOAEL (dog [10]; [26]): > 150 mg/kg/day | NOAEL (dog [10]; [26]): ≥ 150 mg/kg/day | LEL (dog [10]; [27]): 10 mg/kg/day | NEL (dog [10]; [27]): < 10 mg/kg/day

CCc1c(C(=O)NN2CCCCC2)nn(-c2ccc(Cl)cc2Cl)c1-c1ccc(Br)cc1 [Surinabant]
LEL (rabbit): 0.5 mg/kg/day | LOAEL (rabbit): 2 mg/kg/day | NEL (rabbit): < 0.5 mg/kg/day | NOAEL (rabbit): 0.5 mg/kg/day | LOAEL (rat [11]; [28]): > 300 mg/kg/day | NOAEL (rat [11]; [28]): ≥ 300 mg/kg/day | LEL (rat [11]; [29]): 30 mg/kg/day | NEL (rat [11]; [29]): < 30 mg/kg/day | LOAEL (rat [12]; [30]): > 100 mg/kg/day | NOAEL (rat [12]; [30]): ≥ 100 mg/kg/day | LEL (rat [12]; [31]): 10 mg/kg/day | NEL (rat [12]; [31]): < 10 mg/kg/day | LEL (rat [13]): 30 mg/kg/day | LOAEL (rat [13]): > 60 mg/kg/day | NEL (rat [13]): < 30 mg/kg/day | NOAEL (rat [13]): ≥ 60 mg/kg/day | LEL (dog [14]): 1.5 mg/kg/day | LOAEL (dog [14]): 1.5 mg/kg/day | NEL (dog [14]): < 1.5 mg/kg/day | NOAEL (dog [14]): < 1.5 mg/kg/day | LEL (dog [15]): 1 mg/kg/day | LOAEL (dog [15]): 1 mg/kg/day | NEL (dog [15]): < 1 mg/kg/day | NOAEL (dog [15]): < 1 mg/kg/day | LOAEL (mouse [16]; [32]): > 4000 mg/kg/day | NOAEL (mouse [16]; [32]): ≥ 4000 mg/kg/day | LEL (mouse [16]; [33]): 1000 mg/kg/day | NEL (mouse [16]; [33]): < 1000 mg/kg/day | LEL (dog [17]): 10 mg/kg/day | LOAEL (dog [17]): 10 mg/kg/day | NEL (dog [17]): < 10 mg/kg/day | NOAEL (dog [17]): < 10 mg/kg/day
